Measured values as given in US12492179B2, “Substituted ethylamine fused heterocyclic mescaline derivatives” (Enveric Biosciences Canada Inc., priority 2022, dated 2025).

Tests used:
[1] = target: T1, 5-HT1A receptor (Homo sapiens, UniProt P08908); test: 5-HT1A receptor radioligand competition assay (SPA, 8-hydroxy-DPAT); type: binding; conditions: for 5-HT1A receptor binding, in words (competition curves FIGS. 22B-22L): ligand 3 nM to 1 mM
T1 construct: purchased Perkin Elmer 6110501400UA
T1 sequence (P08908 1-422): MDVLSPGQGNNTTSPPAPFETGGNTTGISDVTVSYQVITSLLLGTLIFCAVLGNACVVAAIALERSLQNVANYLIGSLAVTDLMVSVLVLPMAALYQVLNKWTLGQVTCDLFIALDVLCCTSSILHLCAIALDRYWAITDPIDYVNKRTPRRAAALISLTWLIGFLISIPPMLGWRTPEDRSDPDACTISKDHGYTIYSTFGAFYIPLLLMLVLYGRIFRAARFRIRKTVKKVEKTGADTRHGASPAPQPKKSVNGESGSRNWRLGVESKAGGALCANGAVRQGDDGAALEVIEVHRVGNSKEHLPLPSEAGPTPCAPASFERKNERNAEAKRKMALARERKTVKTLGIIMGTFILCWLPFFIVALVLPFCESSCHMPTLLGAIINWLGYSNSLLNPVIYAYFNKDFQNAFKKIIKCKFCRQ

[2] = target: T2, 5-HT2A receptor (Homo sapiens, UniProt P28223); test: 5-HT2A receptor radioligand competition assay (SPA, [3H]ketanserin); type: binding; conditions: for 5-HT2A receptor binding, in words (competition curves FIGS. 23B-23H): ligand 3 nM to 1 mM; for Ki: SPA competition, 1 nM [3H]ketanserin, membranes containing 5-HT2A
T2 construct: host or cells: HEK-293

[3] = target: T3, alpha2A receptor (Homo sapiens, UniProt P08913); test: Eurofins Cerep competition binding assay at alpha2A receptor; conditions: test ligand 10 μM; [3H]RX 821002 1 nM; recombinant receptor, CHO membranes; read-out: α-2A, percent of control-specific binding
T3 construct: host or cells: CHO
T3 sequence (P08913 1-465): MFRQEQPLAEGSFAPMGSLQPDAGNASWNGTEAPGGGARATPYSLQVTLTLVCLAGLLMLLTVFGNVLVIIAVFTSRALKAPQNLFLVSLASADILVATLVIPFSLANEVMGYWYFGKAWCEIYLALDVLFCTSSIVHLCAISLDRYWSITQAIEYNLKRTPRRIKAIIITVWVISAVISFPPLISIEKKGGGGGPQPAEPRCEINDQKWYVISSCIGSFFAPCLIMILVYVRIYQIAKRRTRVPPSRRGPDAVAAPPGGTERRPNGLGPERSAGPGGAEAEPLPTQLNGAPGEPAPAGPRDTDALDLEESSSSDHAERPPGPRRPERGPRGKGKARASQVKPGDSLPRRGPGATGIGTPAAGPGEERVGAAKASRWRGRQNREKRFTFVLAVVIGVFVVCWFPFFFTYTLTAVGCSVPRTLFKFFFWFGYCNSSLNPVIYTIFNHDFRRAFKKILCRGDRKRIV

[4] = target: T4, MT1 receptor (Homo sapiens, UniProt P48039); test: Eurofins Cerep competition binding assay at MT1 receptor; conditions: test ligand 10 μM; [125I]2-iodomelatonin 0.01 nM; recombinant receptor, CHO membranes
T4 construct: host or cells: CHO

[5] = target: T5, 5-HT2B receptor (Homo sapiens, UniProt P41595); test: Eurofins Cerep competition binding assay at 5-HT2B receptor; conditions: test ligand 10 μM; [3H]mesulergine 2 nM; recombinant receptor, CHO membranes
T5 construct: host or cells: CHO

[6] = target: T6, norepinephrine transporter (NET) (Homo sapiens, UniProt P23975); test: Eurofins Cerep competition binding assay at norepinephrine transporter; conditions: test ligand 10 μM; [3H]nisoxetine 1 nM; recombinant transporter, CHO membranes
T6 construct: host or cells: CHO

[7] = target: T2, 5-HT2A receptor; type: binding; conditions: test ligand 10 μM; [125I](±)DOI 0.1 nM; recombinant receptor, HEK-293 membranes
[8] = target: T7, 5-HT2C receptor (Homo sapiens, UniProt P28335); test: Eurofins Cerep competition binding assay at 5-HT2C receptor; conditions: test ligand 10 μM; [125I](±)DOI 0.1 nM; recombinant receptor, HEK-293 membranes
T7 construct: host or cells: HEK-293
T7 sequence (P28335 33-458): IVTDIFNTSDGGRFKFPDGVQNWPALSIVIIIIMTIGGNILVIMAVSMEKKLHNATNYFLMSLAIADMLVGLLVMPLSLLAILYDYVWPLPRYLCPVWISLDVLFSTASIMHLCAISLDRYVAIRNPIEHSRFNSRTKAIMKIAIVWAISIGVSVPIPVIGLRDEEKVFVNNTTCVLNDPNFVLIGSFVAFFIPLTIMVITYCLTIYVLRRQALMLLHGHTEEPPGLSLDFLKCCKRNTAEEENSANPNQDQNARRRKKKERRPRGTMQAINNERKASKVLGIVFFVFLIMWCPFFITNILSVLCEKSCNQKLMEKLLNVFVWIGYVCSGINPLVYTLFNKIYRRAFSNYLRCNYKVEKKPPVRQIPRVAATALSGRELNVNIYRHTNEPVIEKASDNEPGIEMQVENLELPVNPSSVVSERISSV

[9] = target: T8, D3 receptor (Homo sapiens, UniProt P35462); test: Eurofins Cerep competition binding assay at D3 receptor; conditions: test ligand 10 μM; [3H]methylspiperone […]; recombinant receptor, CHO membranes
T8 construct: host or cells: CHO

[10] = target: T1, 5-HT1A receptor; test: Eurofins Cerep competition binding assay at 5-HT1A receptor; conditions: test ligand 10 μM; [3H]8-OH-DPAT 0.5 nM; recombinant receptor, HEK-293 membranes
[11] = target: T9, D2 receptor (Homo sapiens, UniProt P14416); test: Eurofins Cerep competition binding assay at D2 receptor; conditions: test ligand 10 μM; [3H]methylspiperone 0.3 nM; recombinant receptor, HEK-293 membranes
T9 construct: host or cells: HEK-293

[12] = target: T10, serotonin transporter (SERT) (Homo sapiens, UniProt P31645); type: binding
T10 construct: host or cells: CHO

[13] = target: T11, dopamine transporter (DAT) (Homo sapiens, UniProt Q01959); test: Eurofins Cerep competition binding assay at dopamine transporter; conditions: test ligand 10 μM; [3H]BTCP 4 nM; recombinant transporter, CHO membranes
T11 construct: host or cells: CHO
T11 sequence (Q01959 whole entry): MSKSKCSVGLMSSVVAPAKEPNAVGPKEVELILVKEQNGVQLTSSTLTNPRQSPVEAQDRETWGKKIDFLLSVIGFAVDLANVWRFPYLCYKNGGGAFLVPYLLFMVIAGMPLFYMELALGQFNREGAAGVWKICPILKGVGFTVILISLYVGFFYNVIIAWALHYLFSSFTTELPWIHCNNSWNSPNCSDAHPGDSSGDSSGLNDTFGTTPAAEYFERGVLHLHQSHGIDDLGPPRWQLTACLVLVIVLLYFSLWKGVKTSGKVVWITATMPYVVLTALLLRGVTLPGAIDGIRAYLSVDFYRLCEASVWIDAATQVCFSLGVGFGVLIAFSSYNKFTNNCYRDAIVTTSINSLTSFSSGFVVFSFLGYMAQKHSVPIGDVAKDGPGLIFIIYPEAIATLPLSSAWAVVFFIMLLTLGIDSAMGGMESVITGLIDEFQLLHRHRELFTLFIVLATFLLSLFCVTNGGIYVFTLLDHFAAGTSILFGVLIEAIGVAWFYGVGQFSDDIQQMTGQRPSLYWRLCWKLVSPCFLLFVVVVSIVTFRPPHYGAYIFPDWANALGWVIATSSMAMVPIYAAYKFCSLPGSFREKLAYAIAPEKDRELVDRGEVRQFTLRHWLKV

T8 sequence (P35462 whole entry): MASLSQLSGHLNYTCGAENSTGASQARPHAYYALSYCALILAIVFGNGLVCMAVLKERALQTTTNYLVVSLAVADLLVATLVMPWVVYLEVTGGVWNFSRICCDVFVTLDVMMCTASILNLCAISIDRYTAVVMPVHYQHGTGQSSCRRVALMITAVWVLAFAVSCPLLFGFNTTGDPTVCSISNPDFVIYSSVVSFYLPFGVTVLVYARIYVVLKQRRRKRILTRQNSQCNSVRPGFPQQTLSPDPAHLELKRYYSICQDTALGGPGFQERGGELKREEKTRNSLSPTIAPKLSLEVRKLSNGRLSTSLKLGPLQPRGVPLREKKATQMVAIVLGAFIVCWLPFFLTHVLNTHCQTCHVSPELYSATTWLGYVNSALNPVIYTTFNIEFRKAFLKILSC
T6 sequence (P23975 whole entry): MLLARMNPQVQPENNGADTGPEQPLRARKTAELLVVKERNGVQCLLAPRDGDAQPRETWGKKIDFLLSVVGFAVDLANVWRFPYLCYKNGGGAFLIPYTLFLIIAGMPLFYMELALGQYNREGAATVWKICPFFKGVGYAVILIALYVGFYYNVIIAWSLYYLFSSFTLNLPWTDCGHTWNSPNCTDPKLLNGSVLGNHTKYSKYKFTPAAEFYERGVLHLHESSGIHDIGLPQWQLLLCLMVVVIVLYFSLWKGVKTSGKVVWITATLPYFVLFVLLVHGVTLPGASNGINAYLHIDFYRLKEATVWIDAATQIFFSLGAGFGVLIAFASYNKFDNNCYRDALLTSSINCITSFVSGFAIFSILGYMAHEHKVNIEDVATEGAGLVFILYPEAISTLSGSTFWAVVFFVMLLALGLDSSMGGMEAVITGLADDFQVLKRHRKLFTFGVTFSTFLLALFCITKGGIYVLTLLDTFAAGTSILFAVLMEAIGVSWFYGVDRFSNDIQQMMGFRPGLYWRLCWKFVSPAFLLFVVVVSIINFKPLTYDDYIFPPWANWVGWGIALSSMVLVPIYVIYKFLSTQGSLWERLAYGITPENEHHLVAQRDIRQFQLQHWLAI
T2 sequence (P28223 whole entry): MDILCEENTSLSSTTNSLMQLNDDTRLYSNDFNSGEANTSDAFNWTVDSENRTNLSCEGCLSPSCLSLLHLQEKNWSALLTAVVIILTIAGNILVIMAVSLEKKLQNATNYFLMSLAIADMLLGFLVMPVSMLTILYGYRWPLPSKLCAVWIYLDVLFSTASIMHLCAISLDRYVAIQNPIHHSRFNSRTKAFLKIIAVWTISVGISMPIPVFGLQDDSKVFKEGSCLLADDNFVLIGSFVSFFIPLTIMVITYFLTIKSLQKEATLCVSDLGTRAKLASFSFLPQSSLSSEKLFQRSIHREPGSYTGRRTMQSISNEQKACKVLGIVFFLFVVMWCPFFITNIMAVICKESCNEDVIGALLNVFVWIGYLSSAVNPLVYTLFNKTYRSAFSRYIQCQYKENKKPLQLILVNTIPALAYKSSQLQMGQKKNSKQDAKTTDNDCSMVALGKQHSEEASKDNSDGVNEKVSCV
T5 sequence (P41595 whole entry): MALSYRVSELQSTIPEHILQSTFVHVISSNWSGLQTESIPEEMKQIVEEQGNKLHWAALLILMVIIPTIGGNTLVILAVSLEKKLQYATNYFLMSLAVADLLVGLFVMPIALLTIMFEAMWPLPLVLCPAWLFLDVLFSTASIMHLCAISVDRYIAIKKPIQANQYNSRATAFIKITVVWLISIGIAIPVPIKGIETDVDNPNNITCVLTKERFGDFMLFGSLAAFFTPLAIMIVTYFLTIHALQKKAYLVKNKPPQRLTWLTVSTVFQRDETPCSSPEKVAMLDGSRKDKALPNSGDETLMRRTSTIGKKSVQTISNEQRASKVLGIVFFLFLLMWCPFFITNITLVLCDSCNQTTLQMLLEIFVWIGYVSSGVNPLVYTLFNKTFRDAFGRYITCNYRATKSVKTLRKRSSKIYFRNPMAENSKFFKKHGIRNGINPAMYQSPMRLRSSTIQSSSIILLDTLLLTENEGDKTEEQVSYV
T9 sequence (P14416 1-414 isoform P14416-2): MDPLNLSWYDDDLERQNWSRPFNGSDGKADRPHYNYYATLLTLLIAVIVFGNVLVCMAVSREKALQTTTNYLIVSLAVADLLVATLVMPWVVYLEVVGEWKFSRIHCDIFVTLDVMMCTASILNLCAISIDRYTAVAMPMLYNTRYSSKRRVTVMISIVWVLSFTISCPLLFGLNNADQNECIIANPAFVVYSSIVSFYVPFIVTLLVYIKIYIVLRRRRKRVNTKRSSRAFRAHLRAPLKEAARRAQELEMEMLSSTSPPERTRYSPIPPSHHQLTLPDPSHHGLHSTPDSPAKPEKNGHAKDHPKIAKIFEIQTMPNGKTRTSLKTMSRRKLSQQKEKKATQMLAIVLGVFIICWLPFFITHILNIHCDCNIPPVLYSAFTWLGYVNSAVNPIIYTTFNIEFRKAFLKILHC
T4 sequence (P48039 whole entry): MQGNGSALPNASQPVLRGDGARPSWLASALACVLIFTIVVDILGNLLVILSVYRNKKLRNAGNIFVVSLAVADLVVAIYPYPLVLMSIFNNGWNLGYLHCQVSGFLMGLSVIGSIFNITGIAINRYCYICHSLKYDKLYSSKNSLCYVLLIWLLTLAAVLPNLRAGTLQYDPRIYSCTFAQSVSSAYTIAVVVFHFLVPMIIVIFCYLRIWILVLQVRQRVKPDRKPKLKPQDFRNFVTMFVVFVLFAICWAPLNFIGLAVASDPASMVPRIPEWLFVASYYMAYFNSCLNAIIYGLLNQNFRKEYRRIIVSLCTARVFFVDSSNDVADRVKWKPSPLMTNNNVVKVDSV
T10 sequence (P31645 whole entry): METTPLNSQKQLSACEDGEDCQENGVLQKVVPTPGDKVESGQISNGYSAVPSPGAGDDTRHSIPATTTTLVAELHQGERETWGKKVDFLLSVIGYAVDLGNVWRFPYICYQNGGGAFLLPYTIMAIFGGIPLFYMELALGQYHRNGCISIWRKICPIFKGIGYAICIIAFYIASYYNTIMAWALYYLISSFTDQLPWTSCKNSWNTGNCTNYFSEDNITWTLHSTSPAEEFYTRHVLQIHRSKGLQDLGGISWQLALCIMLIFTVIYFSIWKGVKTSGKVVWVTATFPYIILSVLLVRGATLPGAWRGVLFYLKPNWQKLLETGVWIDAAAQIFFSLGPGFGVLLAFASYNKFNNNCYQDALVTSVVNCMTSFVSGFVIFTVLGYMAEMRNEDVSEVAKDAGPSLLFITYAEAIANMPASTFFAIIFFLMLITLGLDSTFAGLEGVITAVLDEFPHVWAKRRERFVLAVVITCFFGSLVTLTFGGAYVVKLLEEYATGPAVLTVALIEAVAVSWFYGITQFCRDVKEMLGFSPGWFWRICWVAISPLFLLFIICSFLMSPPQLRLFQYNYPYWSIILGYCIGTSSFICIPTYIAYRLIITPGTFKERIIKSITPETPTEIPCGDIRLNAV

Compound	5-HT1A receptor binding, in words (competition curves FIGS. 22B-22L) [1]	5-HT2A receptor binding, in words (competition curves FIGS. 23B-23H) [2]	inhibition at 10 µM [3]	MT1, percent of control-specific binding [4]	HT2B, percent of control-specific binding [5]	NET, percent of control-specific binding [6]	Ki [1]	HT2A, percent of control-specific binding [7]	HT2C, percent of control-specific binding [8]	D3, percent of control-specific binding [9]	HT1A, percent of control-specific binding [10]	D2, percent of control-specific binding [11]	SERT, percent of control-specific binding [12]	Ki [2]	DAT, percent of control-specific binding [13]
CCCOc1c(OC)cc(CCN)cc1OC [proscaline, reference compound]	binding to 5-HT1A receptor														
CN(C)CCc1c[nH]c2cccc(O)c12 [psilocin, reference compound]		binding at the 5-HT2A receptor													
CC(C(=O)N(C)Cc1ccccc1)c1ccc2c(c1)OCO2 (racemic) [Ax(V)]			0%	55%	30%	13%	186 µM	2%	16%	8%	2%	0%	0%	83 µM	71%
N[C@@H](Cc1c[nH]c2ccccc12)C(=O)O [tryptophan, reference compound]	no binding	lack of binding at the 5-HT2A receptor													
c1cc2c(cc1CC1=NCCO1)OCO2 [C(III)]			19%	12%	19%	0%	31 µM	0%	12%	10%	24%	0%	0%		19%
CC(C(=O)N1CCCC1)c1ccc2c(c1)OCO2 (racemic) [Ax(II)]			0%	5%	5%	0%	108 µM	0%	0%	0%	3%	0%	2%	591 µM	5%
CC(CN(C)Cc1ccccc1)c1ccc2c(c1)OCO2 (racemic) [Bx(V)]	above levels observed for negative controls	above levels observed for negative control	24%	9%	41%	47%	45 µM	13%	42%	19%	17%	12%	46%	63 µM	78%
COc1cc(CCN)c(OC)cc1Br [2C-B, reference compound]												42%			
CCOc1c(OC)cc(CCN)cc1OC [escaline]	binding to 5-HT1A receptor											5%			
CN(C)CCCN1c2ccccc2CCc2ccccc21 [Imipramine, imipramine, reference compound]													98%		
COc1cc(CC(C)N)c(OC)cc1Br (stereo not drawn) [DOB, reference compound]												9%			
CC(CN1CCCC1)c1ccc2c(c1)OCO2 (racemic) [Bx(II)]			19%	0%	38%	9%	14 µM	10%	52%	14%	36%	6%	81%		79%
CNC(C)Cc1ccc2c(c1)OCO2 (stereo not drawn) [MDMA, reference compound]												−10%			
